Experimental data from patent publication US20060166985A1, “Pyrrolydin-2-one derivatives as inhibitors of thrombin and factor xa” (priority 2002, published 2006).

The molecules below were run against human Thrombin (Homo sapiens, UniProt P00734) (assay: In vitro assay for inhibition of Thrombin (chromogenic or fluorogenic assay)). Conditions: Example 2 chromogenic assay, other Examples fluorogenic assay, read-out: thrombin inhibitory Ki.
Format: biochemical
Experimental: Thrombin inhibitory activity is measured by the ability to inhibit human α-thrombin in a chromogenic assay using N-p-tosyl-gly-pro-lys p-nitroanilide as the chromogenic substrate, or in a fluorogenic assay using Rhodamine 110, bis-(CBZ-L-valyl-L-prolyl-L-arginine amide) as the fluorogenic substrate.
The compound was diluted from a 10 mM stock solution in dimethylsulfoxide at appropriate concentrations. Assay was performed at room temperature using buffer consisting of: 50 mM HEPES, 150 mM NaCl, 5 mM CaCl2, 0.1% PEG, pH 7.4. containing human Thrombin (final conc. of 1 nM). Compound and enzyme were preincubated for 15 min prior to addition of the substrate (final conc. of 100 μM). The reaction was stopped after 30 min with the addition of soybean trypsin inhibitor or H-D-PHE-PRO-ARG-Chloromethylketone. […] To obtain IC50 values the data were analysed using ActivityBase® and XLfit®.
Compounds were diluted from a 10 mM stock solution in dimethylsulfoxide at appropriate concentrations. Assay was performed at room temperature using buffer consisting of: 50 mM HEPES, 150 mM NaCl, 5 mM CaCl2, 0.1% PEG, pH 7.4. containing human Thrombin (final conc. Of 0.2 nM). Compound and enzyme were preincubated for 15 min prior to addition of the substrate (final conc. of 10 μM). The reaction was stopped after 3 hrs with the addition of H-D-PHE-PRO-ARG-Chloromethylketone. […] To obtain IC50 values the data were analysed using ActivityBase® and XLfit®.
`Cc1noc(C[C@@H](C(=O)N2CCOCC2)N2CC[C@H](NS(=O)(=O)CCc3ccc(Cl)s3)C2=O)n1` [Example 78, 2-(5-chloro-2-thienyl)-N-{(3S)-1-[(1S)-1-[(3-methyl-1,2,4-oxadiazol-5-yl)methyl]-2-(4-morpholinyl)-2-oxoethyl]-2-oxo-3-pyrrolidinyl}ethanesulfonamide] was tested, and the Ki was < 25 nM. With `O=C([C@H](c1ccccc1)N1CC[C@H](NS(=O)(=O)CCc2ccc(Cl)s2)C1=O)N1CCOCC1` [Example 69, 2-(5-chloro-2-thienyl)-N-{(3S)-1-[(1S)-2-(4-morpholinyl)-2-oxo-1-phenylethyl]-2-oxo-3-pyrrolidinyl}ethanesulfonamide] the Ki was < 100 nM. In the case of `Cn1ncnc1C[C@@H](C(=O)N1CCOCC1)N1CC[C@H](NS(=O)(=O)CCc2ccc(Cl)s2)C1=O` [Example 81, 2-(5-chloro-2-thienyl)-N-{(3S)-1-[(1S)-1-[(1-methyl-1H-1,2,4-triazol-5-yl)methyl]-2-(4-morpholinyl)-2-oxoethyl]-2-oxo-3-pyrrolidinyl}ethanesulfonamide], the Ki is reported as < 100 nM. In the case of `C[C@@H](C(=O)N1CCOCC1)N1CC[C@H](NS(=O)(=O)CCc2ccc(Cl)cn2)C1=O` [Example 47, 2-(5-chloro-2-pyridinyl)-N-{(3S)-1-[(1S)-1-methyl-2-(4-morpholinyl)-2-oxoethyl]-2-oxo-3-pyrrolidinyl}ethanesulfonamide], the Ki is reported as < 100 nM. With `COC[C@@H](C(=O)N1CCOCC1)N1CC[C@H](NS(=O)(=O)CC(C)c2ccc(Cl)s2)C1=O` (stereo partly drawn) [Example 58, 2-(5-chloro-2-thienyl)-N-{(3S)-1-[(1S)-1-[(methyloxy)methyl]-2-(4-morpholinyl)-2-oxoethyl]-2-oxo-3-pyrrolidinyl}-1-propanesulfonamide] the Ki was < 100 nM. For `CC[C@@H](C(=O)N1CCOCC1)N1CC[C@H](NS(=O)(=O)CCc2ccc(Cl)cc2)C1=O` [Example 6, 2-(4-chlorophenyl)-N-{(3S)-1-[(1S)-1-(morpholin-4-ylcarbonyl)propyl]-2-oxopyrrolidin-3-yl}ethanesulfonamide], the Ki was < 100 nM. `COC[C@@H](C(=O)N1CCOCC1)N1CC[C@H](NS(=O)(=O)CC2COc3cc(Cl)ccc32)C1=O` (stereo partly drawn) [Example 65, 1-(6-chloro-2,3-dihydro-1-benzofuran-3-yl)-N-{(3S)-1-[(1S)-1-[(methyloxy)methyl]-2-(4-morpholinyl)-2-oxoethyl]-2-oxo-3-pyrrolidinyl}methanesulfonamide] was tested, and the Ki was < 100 nM. With `CC[C@H](C)[C@@H](C(=O)N1CCOCC1)N1CC[C@H](NS(=O)(=O)CC(F)(F)c2ccc(Cl)cc2)C1=O` [Example 29, 2-(4-chlorophenyl)-2,2-difluoro-N-{(3S)-1-[(1S,2S)-2-methyl-1-(morpholin-4-ylcarbonyl)butyl]-2-oxopyrrolidin-3-yl}ethanesulfonamide] the Ki was < 25 nM. In the case of `COC[C@@H](C(=O)N1CCOCC1)N1CC[C@H](NS(=O)(=O)CCc2ccc(Cl)s2)C1=O` [Example 15, 2-(5-chlorothien-2-yl)-N-{(3S)-1-[(1S)-1-(methoxymethyl)-2-morpholin-4-yl-2-oxoethyl]-2-oxopyrrolidin-3-yl}ethanesulfonamide], the Ki is reported as < 50 nM. `CC[C@H](C)[C@@H](C(=O)N1CCOCC1)N1CC[C@H](N(CC(=O)N(C)C)S(=O)(=O)CCc2ccc(Cl)s2)C1=O` [Example 40, N^2-{[2-(5-chlorothien-2-yl)ethyl]sulfonyl)-N^1,N^1-dimethyl-N^2-{(3S)-1-[(1S,2S)-2-methyl-1-(morpholin-4-ylcarbonyl)butyl]-2-oxopyrrolidin-3-yl}glycinamide] was tested, and the Ki was < 10 nM. `C/C(=C\S(=O)(=O)N[C@H]1CCN([C@H](C(=O)N2CCOCC2)C(C)C)C1=O)c1ccc(Cl)s1` [Example 9, (1E)-2-(5-chlorothien-2-yl)-N-{(3S)-1-[(1S)-2-methyl-1-(morpholin-4-ylcarbonyl)propyl]-2-oxopyrrolidin-3-yl}prop-1-ene-1-sulfonamide] was tested, and the Ki was < 10 nM. `C/C(=C\S(=O)(=O)N[C@H]1CCN([C@@H](CC(=O)OCc2ccccc2)C(=O)N2CCOCC2)C1=O)c1ccc(Cl)s1` [Example 22, Benzyl (3S)-3-[(3S)-3-({[(1E)-2-(5-Chlorothien-2-yl)prop-1-enyl]sulfonyl}amino)-2-oxopyrrolidin-1-yl]-4-morpholin-4-yl-4-oxobutanoate] was tested, and the Ki was < 10 nM. In the case of `CC[C@H](C)[C@@H](C(=O)N1CCOCC1)N1CC[C@H](N(C)S(=O)(=O)CCc2ccc(Cl)s2)C1=O` [Example 38, 2-(5-chlorothien-2-yl)-N-methyl-N-{(3S)-1-[(1S,2S)-2-methyl-1-(morpholin-4-ylcarbonyl)butyl]-2-oxopyrrolidin-3-yl}ethanesulfonamide], the Ki is reported as < 10 nM. With `C[C@@H](C(=O)N1CCOCC1)N1CC[C@H](N(CC(N)=O)S(=O)(=O)CCc2ccc(Cl)s2)C1=O` [Example 20, N^2-{[2-(5-Chlorothien-2-yl)ethyl]sulfonyl}-N^2-{(3S)-1-[(1S)-1-methyl-2-morpholin-4-yl-2-oxoethyl]-2-oxopyrrolidin-3-yl}glycinamide] the Ki was < 25 nM. `Cc1noc(C[C@@H](C(=O)N2CCOCC2)N2CC[C@H](NS(=O)(=O)CCc3ccc(Cl)cc3)C2=O)n1` [Example 82, 2-(4-chlorophenyl)-N-{(3S)-1-[(1S)-1-[(3-methyl-1,2,4-oxadiazol-5-yl)methyl]-2-(4-morpholinyl)-2-oxoethyl]-2-oxo-3-pyrrolidinyl}ethanesulfonamide] was tested, and the Ki was < 100 nM. For `O=C([C@H](Cc1ncno1)N1CC[C@H](NS(=O)(=O)CCc2ccc(Cl)s2)C1=O)N1CCOCC1` [Example 77, 2-(5-chloro-2-thienyl)-N-{(3S)-1-[(1S)-2-(4-morpholinyl)-1-(1,2,4-oxadiazol-5-ylmethyl)-2-oxoethyl]-2-oxo-3-pyrrolidinyl}ethanesulfonamide], the Ki was < 10 nM. For `CC(C)C[C@@H](C(=O)N1CCOCC1)N1CC[C@H](NS(=O)(=O)CCc2ccc(Cl)s2)C1=O` [Example 37, 2-(5-chlorothien-2-yl)-N-{(3S)-1-[(1S)-3-methyl-1-(morpholin-4-ylcarbonyl)butyl]-2-oxopyrrolidin-3-yl}ethanesulfonamide], the Ki was < 100 nM. In the case of `O=C([C@H](c1cccs1)N1CC[C@H](NS(=O)(=O)CCc2ccc(Cl)s2)C1=O)N1CCOCC1` [Example 73, 2-(5-chloro-2-thienyl)-N-{(3S)-1-[(1R)-2-(4-morpholinyl)-2-oxo-1-(2-thienyl)ethyl]-2-oxo-3-pyrrolidinyl}ethanesulfonamide], the Ki is reported as < 50 nM. With `CC[C@H](C)[C@@H](C(=O)N1CCOCC1)N1CC[C@H](NS(=O)(=O)CC(=O)c2ccc(Cl)cc2)C1=O` [Example 51, 2-(4-chlorophenyl)-N-{(3S)-1-[(1S,2S)-2-methyl-1-(4-morpholinylcarbonyl)butyl]-2-oxo-3-pyrrolidinyl}-2-oxoethanesulfonamide] the Ki was < 50 nM. In the case of `Cn1cnc(C[C@@H](C(=O)N2CCOCC2)N2CC[C@H](NS(=O)(=O)CCc3ccc(Cl)s3)C2=O)n1` [Example 80, 2-(5-chloro-2-thienyl)-N-{(3S)-1-[(1S)-1-[(1-methyl-1H-1,2,4-triazol-3-yl)methyl]-2-(4-morpholinyl)-2-oxoethyl]-2-oxo-3-pyrrolidinyl}ethanesulfonamide], the Ki is reported as < 50 nM. In the case of `C[C@@H](C(=O)N1CCOCC1)N1CC[C@H](N(C)S(=O)(=O)CCc2ccc(Cl)s2)C1=O` [Example 19, 2-(5-Chlorothien-2-yl)-N-methyl-N-{(3S)-1-[(1S)-1-methyl-2-morpholin-4-yl-2-oxoethyl]-2-oxopyrrolidin-3-yl}ethanesulfonamide], the Ki is reported as < 50 nM. For `CCOC[C@@H](C(=O)N1CCOCC1)N1CC[C@H](NS(=O)(=O)CCc2ccc(Cl)s2)C1=O` [Example 85, 2-(5-chloro-2-thienyl)-N-{(3S)-1-[(1S)-1-[(ethyloxy)methyl]-2-(4-morpholinyl)-2-oxoethyl]-2-oxo-3-pyrrolidinyl}ethanesulfonamide], the Ki was < 10 nM. With `C[C@@H](C(=O)N1CCOCC1)N1CC[C@H](NS(=O)(=O)CC2COc3cc(Cl)ccc32)C1=O` (stereo partly drawn) [Example 64, 1-(6-chloro-2,3-dihydro-1-benzofuran-3-yl)-N-{(3S)-1-[(1S)-1-methyl-2-(4-morpholinyl)-2-oxoethyl]-2-oxo-3-pyrrolidinyl}methanesulfonamide] the Ki was < 100 nM. `CC[C@H](C)[C@@H](C(=O)N1CCOCC1)N1CC[C@H](NS(=O)(=O)CCc2ccc(Cl)s2)C1=O` [Example 10, 2-(5-chlorothien-2-yl)-N-{(3S)-1-[(1S,2S)-2-methyl-1-(morpholin-4-ylcarbonyl)butyl]-2-oxopyrrolidin-3-yl}ethanesulfonamide] was tested, and the Ki was < 10 nM. For `CNC(=O)CN([C@H]1CCN([C@@H](COC)C(=O)N2CCOCC2)C1=O)S(=O)(=O)CCc1ccc(Cl)s1` [Example 98, N^2-{(2-(5-chloro-2-thienyl)ethyl]sulfonyl}-N^1-methyl-N^2-{(3S)-1-[(1S)-1-[(methyloxy)methyl]-2-(4-morpholinyl)-2-oxoethyl]-2-oxo-3-pyrrolidinyl}glycinamide], the Ki was < 10 nM. In the case of `CC(C)[C@@H](C(=O)N1CCOCC1)N1CC[C@H](NS(=O)(=O)CCc2ccc(Cl)s2)C1=O` [Example 8, 2-(5-chlorothien-2-yl)-N-{(3S)-1-[(1S)-2-methyl-1-(morpholin-4-ylcarbonyl)propyl]-2-oxopyrrolidin-3-yl}ethanesulfonamide], the Ki is reported as < 10 nM.
